Reference: patent publication US20260308159A1, “BICYCLIC HETEROARYLAMIDES HAVING GPR68 MODULATING ACTIVITY” (RECURSION PHARMACEUTICALS, INC., priority 2023, published 2026)

These compounds were tested against T1, human GPR68 (Homo sapiens, UniProt Q15743) (assay: GPR68 Biochemical Assay (Promega GloSensor cAMP assay, GPR68 antagonism)). Conditions: HEK293T cells transiently expressing hGPR68, antagonism of pH 5.5 stimulated cAMP, 15 min, read-out: hGPR68 IC50.
T1 construct: encoding full-length human GPR68 (uniprot ID: Q15743); expressed in transfected cells; host or cells: HEK293T
Type: cell-based
Procedure, shortened: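 Readout is GloSensor cAMP luminescence after 15 min at room temperature, normalised between pH 5.5 stimulation and pH 8.0 minimum controls; IC50 fitted sigmoidally. Test compounds, up to 50 μM final (9-point half-log, 0.5% DMSO), were co-added with pH 5.5 buffer to HEK293T cells transiently expressing full-length human GPR68 plus GloSensor.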

T1 sequence (Q15743 whole entry): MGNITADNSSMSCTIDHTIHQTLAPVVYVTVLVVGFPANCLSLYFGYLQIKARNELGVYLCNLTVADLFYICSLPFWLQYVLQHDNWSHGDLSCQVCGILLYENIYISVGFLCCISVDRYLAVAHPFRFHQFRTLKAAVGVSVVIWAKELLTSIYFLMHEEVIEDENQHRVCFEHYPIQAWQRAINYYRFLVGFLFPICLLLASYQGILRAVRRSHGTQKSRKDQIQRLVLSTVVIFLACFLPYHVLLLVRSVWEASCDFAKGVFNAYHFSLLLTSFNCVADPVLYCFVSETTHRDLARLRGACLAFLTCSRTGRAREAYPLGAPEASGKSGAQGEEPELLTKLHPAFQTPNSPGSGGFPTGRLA

Row | Structure (SMILES) | IC50
1 | COCc1nn2c(C(=O)NC3Cc4ccncc4C3)ccnc2c1C(N)=O (centres unmarked) [Compound 170, N7-(6,7-dihydro-5H-cyclopenta[c]pyridin-6-yl)-2-(methoxymethyl)pyrazolo[1,5-a]pyrimidine-3,7-dicarboxamide] | < 50 nM
2 | COCc1nn2c(C(=O)Nc3ccc(F)c(F)c3)ccnc2c1C(N)=O [Compound 66, N7-(3,4-difluorophenyl)-2-(methoxymethyl)pyrazolo[1,5-a]pyrimidine-3,7-dicarboxamide] | < 50 nM
3 | COCc1nn2c(C(=O)NC(C)c3ccc(F)cc3)ccnc2c1C(N)=O (centres unmarked) [Compound 122, N7-[1-(4-fluorophenyl)ethyl]-2-(methoxymethyl)pyrazolo[1,5-a]pyrimidine-3,7-dicarboxamide] | 50 to 500 nM
4 | NC(=O)c1cnn2c(C(=O)NC3Cc4nccn4C3)ccnc12 (centres unmarked) [Compound 19, N7-(6,7-dihydro-5H-pyrrolo[1,2-a]imidazol-6-yl)pyrazolo[1,5-a]pyrimidine-3,7-dicarboxamide] | 5000 to 50000 nM
5 | NC(=O)c1c(COC2CC2)nn2c(C(=O)N[C@H]3C[C@@H](OC(F)(F)F)C3)ccnc12 [Compound 216, 2-(cyclopropoxymethyl)-N7-[cis-3-(trifluoromethoxy)cyclobutyl]pyrazolo[1,5-a]pyrimidine-3,7-dicarboxamide] | < 50 nM
6 | NC(=O)c1c(C2CC2)nn2c(C(=O)NC3Cc4cccnc4C3)ccnc12 (centres unmarked) [Compound 115, 2-cyclopropyl-N7-(6,7-dihydro-5H-cyclopenta[b]pyridin-6-yl)pyrazolo[1,5-a]pyrimidine-3,7-dicarboxamide] | < 50 nM
7 | COCc1nn2c(C(=O)N3CCN(c4ncccc4C(F)(F)F)CC3)ccnc2c1C(N)=O [Compound 89, 2-(methoxymethyl)-7-[4-[3-(trifluoromethyl)-2-pyridyl]piperazine-1-carbonyl]pyrazolo[1,5-a]pyrimidine-3-carboxamide] | 50000 to 100000 nM
8 | NC(=O)c1c(OCC2CC2)nn2c(C(=O)N[C@H]3C[C@@H](OC(F)(F)F)C3)ccnc12 [Compound 162, 2-(cyclopropylmethoxy)-N7-[cis-3-(trifluoromethoxy)cyclobutyl]pyrazolo[1,5-a]pyrimidine-3,7-dicarboxamide] | 50 to 500 nM
9 | [2H]C([2H])([2H])OCc1nn2c(C(=O)NC3Cc4cccnc4C3)ccnc2c1C(N)=O (centres unmarked) [Compound 160, N7-(6,7-dihydro-5H-cyclopenta[b]pyridin-6-yl)-2-(trideuteriomethoxymethyl)pyrazolo[1,5-a]pyrimidine-3,7-dicarboxamide] | < 50 nM

The next lines start with the values.

Row | IC50 | Structure (SMILES)
10 | 500 to 5000 nM | COCc1nn2c(C(=O)N[C@H]3CC[C@@H](C)CC3)ccnc2c1C(N)=O [Compound 84, 2-(methoxymethyl)-N7-(cis-4-methylcyclohexyl)pyrazolo[1,5-a]pyrimidine-3,7-dicarboxamide]
11 | < 50 nM | COCc1nn2c(C(=O)NC3CCc4ccc(F)cc4C3)ccnc2c1C(N)=O (centres unmarked) [Compound 82, N7-(7-fluorotetralin-2-yl)-2-(methoxymethyl)pyrazolo[1,5-a]pyrimidine-3,7-dicarboxamide]
12 | < 50 nM | NC(=O)c1c(C2CC2)nn2c(C(=O)NCc3ccc(F)cc3)ccnc12 [Compound 140, 2-cyclopropyl-N7-[(4-fluorophenyl)methyl]pyrazolo[1,5-a]pyrimidine-3,7-dicarboxamide]
13 | < 50 nM | NC(=O)c1c(C2CC2)nc2c(C(=O)NC3CCC(F)(F)CC3)ccnn12 [Compound 150, 2-cyclopropyl-N8-(4,4-difluorocyclohexyl)imidazo[1,2-b]pyridazine-3,8-dicarboxamide]
14 | 50 to 500 nM | NC(=O)c1cnn2c(C(=O)NC3Cc4ccccc4C3)ccnc12 [Compound 1, N7-indan-2-ylpyrazolo[1,5-a]pyrimidine-3,7-dicarboxamide]
